Laboratory results from patent US11420969B2 (Exonate Limited, priority 2017, dated 2022).
Where two headings read alike, the source gives them in different places.

Key:
CYP2C19 = biological target: T1, CYP2C19 (Homo sapiens, UniProt P33261); assay: CYP inhibition assay, human liver microsomes, substrate S-mephenytoin; assay type: in vitro ADME
T1 construct: from tissue; host or cells: human liver microsomes
Method: (§1) 2 μL of test compound/Positive Inhibitor working solutions is then added to the reaction plate (2 μL/well). For control, 2 μL of Acetonitrile (ACN) containing DMSO (without inhibitor) is added to the reaction plate. 20 μL of substrate pool is added to all the wells of the reaction plate. The samples are mixed in a vortexer and pre-incubated at 37° C. for 20 min. The NADPH solution is pre-warmed at 37° C. for 5 min. 20 μL of pre-warmed NADPH solution is added to the reaction plate and then incubated at 37° C. for 10 min. The reaction is terminated by adding cold ACN (200 μL/well) to the reaction mixture and centrifuging at 4,000 rpm for 20 minutes. After centrifugation, supernatant is separated and analyzed by LC-MS/MS.
(§2) % inhibition and IC50 are calculated using Graphpad Prism software.

CYP3A4 = biological target: T2, CYP3A4 (Homo sapiens, UniProt P08684); assay: CYP inhibition assay, human liver microsomes, substrate midazolam; assay type: in vitro ADME
T2 construct: from tissue; host or cells: human liver microsomes
T2 sequence (P08684 whole entry): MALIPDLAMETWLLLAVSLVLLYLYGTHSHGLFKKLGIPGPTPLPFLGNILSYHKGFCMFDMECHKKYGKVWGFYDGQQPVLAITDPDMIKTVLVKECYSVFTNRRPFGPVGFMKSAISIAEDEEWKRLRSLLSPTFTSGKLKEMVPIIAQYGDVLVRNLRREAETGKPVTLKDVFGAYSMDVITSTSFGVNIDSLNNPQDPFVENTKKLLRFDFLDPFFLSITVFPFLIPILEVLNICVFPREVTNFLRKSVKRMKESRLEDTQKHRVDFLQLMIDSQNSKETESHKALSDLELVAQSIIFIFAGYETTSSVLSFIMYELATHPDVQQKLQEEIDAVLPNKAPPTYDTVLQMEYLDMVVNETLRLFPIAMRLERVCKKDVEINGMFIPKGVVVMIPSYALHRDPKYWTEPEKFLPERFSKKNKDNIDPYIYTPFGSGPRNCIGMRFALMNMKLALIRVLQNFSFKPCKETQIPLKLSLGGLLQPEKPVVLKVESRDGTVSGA
Method: as §1, §2

CYP1A2 = biological target: T3, CYP1A2 (Homo sapiens, UniProt P05177); assay: CYP inhibition assay, human liver microsomes, substrate tacrine; assay type: in vitro ADME
T3 construct: from tissue; host or cells: human liver microsomes
T3 sequence (P05177 1-516): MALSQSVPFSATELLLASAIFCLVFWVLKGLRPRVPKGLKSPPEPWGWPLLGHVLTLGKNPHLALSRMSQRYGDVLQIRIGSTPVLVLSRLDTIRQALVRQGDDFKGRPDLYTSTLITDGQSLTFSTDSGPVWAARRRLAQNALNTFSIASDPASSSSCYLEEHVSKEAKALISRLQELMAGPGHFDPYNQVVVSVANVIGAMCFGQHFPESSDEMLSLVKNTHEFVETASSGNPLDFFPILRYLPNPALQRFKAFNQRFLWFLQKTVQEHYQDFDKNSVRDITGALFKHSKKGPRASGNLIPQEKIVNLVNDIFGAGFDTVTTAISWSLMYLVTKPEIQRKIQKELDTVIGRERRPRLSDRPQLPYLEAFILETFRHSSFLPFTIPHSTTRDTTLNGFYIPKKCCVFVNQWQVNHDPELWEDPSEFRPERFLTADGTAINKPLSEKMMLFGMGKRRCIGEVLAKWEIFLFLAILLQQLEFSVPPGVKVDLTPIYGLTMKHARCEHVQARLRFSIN
Method: as §1, §2

SRPK1 = SRPK1 (Homo sapiens, UniProt Q96SB4); assay: In vitro SRPK1 assay (Kinase-Glo); assay type: biochemical
Sequence of SRPK1 (Q96SB4 whole entry, species assumed): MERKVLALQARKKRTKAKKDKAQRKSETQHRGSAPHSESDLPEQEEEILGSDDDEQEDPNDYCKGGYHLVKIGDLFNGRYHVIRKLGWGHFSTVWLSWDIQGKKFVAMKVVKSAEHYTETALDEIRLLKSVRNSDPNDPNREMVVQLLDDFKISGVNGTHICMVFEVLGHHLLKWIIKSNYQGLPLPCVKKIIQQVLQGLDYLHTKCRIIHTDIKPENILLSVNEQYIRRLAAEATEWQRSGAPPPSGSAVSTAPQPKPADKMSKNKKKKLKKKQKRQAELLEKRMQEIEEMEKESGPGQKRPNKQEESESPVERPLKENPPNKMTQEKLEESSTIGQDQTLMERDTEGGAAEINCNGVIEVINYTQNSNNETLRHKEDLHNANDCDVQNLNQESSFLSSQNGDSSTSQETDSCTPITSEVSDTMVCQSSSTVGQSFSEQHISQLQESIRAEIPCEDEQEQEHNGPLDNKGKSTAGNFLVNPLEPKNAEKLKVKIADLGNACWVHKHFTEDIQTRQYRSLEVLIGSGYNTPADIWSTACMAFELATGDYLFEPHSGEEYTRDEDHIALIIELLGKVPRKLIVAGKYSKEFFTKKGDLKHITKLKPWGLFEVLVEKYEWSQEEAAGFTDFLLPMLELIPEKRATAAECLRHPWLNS

CYP2D6 = biological target: T4, CYP2D6 (Homo sapiens, UniProt P10635); assay: biochemical; assay type: in vitro ADME
T4 construct: from tissue; host or cells: human liver microsomes
T4 sequence (P10635 whole entry): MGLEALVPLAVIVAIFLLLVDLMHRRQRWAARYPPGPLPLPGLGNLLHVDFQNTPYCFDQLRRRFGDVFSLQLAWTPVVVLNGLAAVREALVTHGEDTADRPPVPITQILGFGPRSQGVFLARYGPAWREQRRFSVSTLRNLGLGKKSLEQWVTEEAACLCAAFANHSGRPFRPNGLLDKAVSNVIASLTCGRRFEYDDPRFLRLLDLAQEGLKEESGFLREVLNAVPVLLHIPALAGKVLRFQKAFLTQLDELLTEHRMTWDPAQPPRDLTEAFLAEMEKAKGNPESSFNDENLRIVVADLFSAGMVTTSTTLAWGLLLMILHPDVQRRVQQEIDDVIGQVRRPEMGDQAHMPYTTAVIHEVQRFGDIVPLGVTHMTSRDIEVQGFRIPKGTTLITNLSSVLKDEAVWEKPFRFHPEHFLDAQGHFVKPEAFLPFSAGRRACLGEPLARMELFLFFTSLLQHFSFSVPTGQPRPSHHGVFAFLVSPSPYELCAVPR
Method: 158 μL of Human Liver Microsomes working stock solution is added to a reaction plate (0.253 mg/mL, 158 μL/well). 2 μL of test compound/Positive Inhibitor working solutions is then added to the reaction plate (2 μL/well). For control, 2 μL of Acetonitrile (ACN) containing DMSO (without inhibitor) is added to the reaction plate. 20 μL of substrate pool is added to all the wells of the reaction plate. The samples are mixed in a vortexer and pre-incubated at 37° C. for 20 min. The NADPH solution is pre-warmed at 37° C. for 5 min. 20 μL of pre-warmed NADPH solution is added to the reaction plate and then incubated at 37° C. for 10 min. The reaction is terminated by adding cold ACN (200 μL/well) to the reaction mixture and centrifuging at 4,000 rpm for 20 minutes. After centrifugation, supernatant is separated and analyzed by LC-MS/MS.
as §2

CYP2C9 = biological target: T5, CYP2C9 (Homo sapiens, UniProt P11712); assay: CYP inhibition assay, human liver microsomes, substrate diclofenac; assay type: in vitro ADME
T5 construct: from tissue; host or cells: human liver microsomes
T5 sequence (P11712 whole entry): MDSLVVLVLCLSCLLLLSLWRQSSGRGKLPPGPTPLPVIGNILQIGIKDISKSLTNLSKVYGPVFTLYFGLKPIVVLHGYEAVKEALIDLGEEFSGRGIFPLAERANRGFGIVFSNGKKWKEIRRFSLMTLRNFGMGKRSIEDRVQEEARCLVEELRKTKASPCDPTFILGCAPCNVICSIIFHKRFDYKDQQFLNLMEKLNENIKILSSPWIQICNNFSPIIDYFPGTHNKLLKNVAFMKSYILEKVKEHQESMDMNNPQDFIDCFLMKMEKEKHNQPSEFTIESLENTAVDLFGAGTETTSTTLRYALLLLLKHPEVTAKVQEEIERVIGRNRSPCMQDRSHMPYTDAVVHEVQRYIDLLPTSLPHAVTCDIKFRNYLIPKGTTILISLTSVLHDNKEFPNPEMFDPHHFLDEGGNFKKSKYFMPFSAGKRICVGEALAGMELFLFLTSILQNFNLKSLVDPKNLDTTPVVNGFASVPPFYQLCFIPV
Method: as §1, §2

[1] = human liver microsomes, 10 min incubation, LC-MS/MS, read-out: CYP Inhibition Activity (IC50/nM) CYP2C19
[2] = human liver microsomes, 10 min incubation, LC-MS/MS, read-out: CYP Inhibition Activity (IC50/nM) CYP3A4
[3] = human liver microsomes, 10 min incubation, LC-MS/MS, read-out: CYP Inhibition Activity (IC50/nM) CYP1A2
[4] = human liver microsomes, 10 min incubation, LC-MS/MS, read-out: CYP Inhibition Activity (IC50/nM) CYP2C9

T1 sequence (P33261 whole entry): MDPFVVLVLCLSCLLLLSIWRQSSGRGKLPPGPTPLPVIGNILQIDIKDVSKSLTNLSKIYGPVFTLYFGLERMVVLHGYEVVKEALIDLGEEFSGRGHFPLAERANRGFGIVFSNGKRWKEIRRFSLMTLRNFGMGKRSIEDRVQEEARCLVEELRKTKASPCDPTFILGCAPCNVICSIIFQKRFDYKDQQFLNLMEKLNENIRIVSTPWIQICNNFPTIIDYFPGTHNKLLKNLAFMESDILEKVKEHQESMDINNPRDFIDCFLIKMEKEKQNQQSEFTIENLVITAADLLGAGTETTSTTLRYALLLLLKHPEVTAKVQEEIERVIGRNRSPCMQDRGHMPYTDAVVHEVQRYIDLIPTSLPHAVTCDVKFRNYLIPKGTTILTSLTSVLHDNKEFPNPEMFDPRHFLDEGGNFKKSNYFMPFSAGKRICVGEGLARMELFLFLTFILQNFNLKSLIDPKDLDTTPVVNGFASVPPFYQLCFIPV

Row | Compound | IC50 (CYP2C19; [1]) | IC50 (CYP3A4; [2]) | IC50 (CYP1A2; [3]) | IC50 (SRPK1) | IC50 (CYP2D6) | IC50 (CYP2C9; [4]) | IC50 (CYP2C19; microsomes) | IC50 (CYP3A4; microsomes) | IC50 (CYP1A2; microsomes) | IC50 (CYP2D6; microsomes) | IC50 (CYP2C9; microsomes) | IC50 (CYP2D6; human liver microsomes, 10 min incubation, LC-MS/MS, read-out: CYP Inhibition Activity (IC50/nM) CYP2D6) | IC50 (CYP2C9)
1 | O=C(Nc1cc(C(F)(F)F)ccc1N1CCC(O)C1)c1ccc(C2CCOCC2)o1 (racemic) [Example 57, N-(2-(3-hydroxypyrrolidin-1-yl)-5-(trifluoromethyl)-phenyl)-5-(tetrahydro-2H-pyran-4-yl)furan-2-carboxamide] | 14500 nM | > 30000 nM | 9160 nM | 75 nM | 11500 nM | 5550 nM | – | – | – | – | – | – | –
2 | Cc1ccc(N2CCC(O)(CC3CC3)CC2)c(NC(=O)c2ccc(C3CCOCC3)o2)c1 [Example 70, N-(2-(4-(cyclopropylmethyl)-4-hydroxypiperidin-1-yl)-5-methylphenyl)-5-(tetrahydro-2H-pyran-4-yl)furan-2-carboxamide] | 2200 nM | 4400 nM | > 30000 nM | 11 nM | 4700 nM | 1800 nM | – | – | – | – | – | – | –
3 | CC1(O)CCN(c2ccc(C(F)(F)F)cc2NC(=O)c2ccc(-c3ccncc3)o2)C1 (racemic) [Example 55, N-(2-(3-hydroxy-3-methylpyrrolidin-1-yl)-5-(trifluoromethyl)-phenyl)-5-(pyridin-4-yl)furan-2-carboxamide] | 22900 nM | > 30000 nM | 13000 nM | 26 nM | > 30000 nM | > 30000 nM | – | – | – | – | – | – | –
4 | CC1(O)CCN(c2ccc(C(F)(F)F)cc2NC(=O)c2ccc(-c3ccncc3)o2)CC1 [Example 4, N-(2-(4-hydroxy-4-methylpiperidin-1-yl)-5-(trifluoromethyl)phenyl)-5-(pyridin-4-yl)furan-2-carboxamide] | 2480 nM | 4900 nM | 23200 nM | 5 nM | 3450 nM | 2480 nM | – | – | – | – | – | – | –
5 | CC1CCN(c2ccc(C(F)(F)F)cc2NC(=O)c2ccc(-c3ccncc3)o2)CC1 [Example 34, N-(2-(4-methylpiperidin-1-yl)-5-(trifluoromethyl)-phenyl)-5-(pyridin-4-yl)furan-2-carboxamide] | 4000 nM | 7300 nM | 4000 nM | 422 nM | 5500 nM | 5600 nM | – | – | – | – | – | – | –
6 | O=C(Nc1cc(C(F)(F)F)ccc1N1CCN(Cc2cc[nH]n2)CC1)c1ccc(C2CCOCC2)o1 [Reference Example 3, N-(2-(4-((1H-pyrazol-3-yl)methyl)piperazin-1-yl)-5-(trifluoromethyl)-phenyl)-5-(tetrahydro-2H-pyran-4-yl)furan-2-carboxamide, reference compound] | 610 nM | 4160 nM | > 30000 nM | – | 7080 nM | 230 nM | – | – | – | – | – | – | –
7 | O=C(Nc1cc(C(F)(F)F)ccc1N1CCN(Cc2ccccn2)CC1)c1ccc(-c2ccncc2)o1 [Reference Example 1, reference compound] | 230 nM | 310 nM | > 30000 nM | – | – | – | – | – | – | – | – | 740 nM | 170 nM
8 | 5-(pyridin-4-yl)-N-(2-(5-(thiazol-2-ylmethyl)piperazin-1-yl)-5-(trifluoromethyl)phenyl)furan-2-carboxamide [Reference Example 5, reference compound] | – | – | – | – | – | – | 230 nM | 610 nM | 15200 nM | 200 nM | 250 nM | – | –
9 | O=C(Nc1cc(C(F)(F)F)ccc1N1CCCC(O)CC1)c1ccccn1 (racemic) [Example 43, N-(2-(4-hydroxyazepan-1-yl)-5-(trifluoromethyl)-phenyl)picolinamide] | – | – | – | 3.4 nM | – | – | – | – | – | – | – | – | –
10 | CC1(O)CCCN(c2ccc(C3CC3)cc2NC(=O)c2ccc(-c3ccncc3)o2)CC1 (racemic) [Example 39, N-(5-cyclopropyl-2-(4-hydroxy-4-methylazepan-1-yl)phenyl)-5-(pyridin-4-yl)-furan-2-carboxamide] | – | 18300 nM | 17600 nM | 35 nM | > 30000 nM | 11500 nM | – | – | – | – | – | – | –
11 | CC1(CN)CCN(c2ccc(C(F)(F)F)cc2NC(=O)c2ccc(C3CCOCC3)o2)CC1 [Example 81, N-(2-(4-(aminomethyl)-4-methylpiperidin-1-yl)-5-(trifluoromethyl)phenyl)-5-(tetrahydro-2H-pyran-4-yl)furan-2-carboxamide] | – | 21200 nM | > 30000 nM | 2.6 nM | 5010 nM | 23000 nM | – | – | – | – | – | – | –
12 | O=C(Nc1cc(C(F)(F)F)ccc1N1CCC(CO)CC1)c1ccccn1 [Example 31, N-(2-(4-(hydroxymethyl)piperidin-1-yl)-5-(trifluoromethyl)phenyl)picolinamide] | – | – | – | 41 nM | – | – | – | – | – | – | – | – | –
13 | O=C(Nc1cc(C(F)(F)F)ccc1N1CCC(C(=O)O)CC1)c1ccccn1 [Example 30, 1-(2-(picolinamido)-4-(trifluoromethyl)phenyl)-piperidine-4-carboxylic acid] | – | – | – | 76 nM | – | – | – | – | – | – | – | – | –

Continued by falling IC50 (CYP3A4; [2]), values first:

Row | IC50 (CYP2C19; [1]) | IC50 (CYP3A4; [2]) | IC50 (CYP1A2; [3]) | IC50 (SRPK1) | IC50 (CYP2D6) | IC50 (CYP2C9; [4]) | IC50 (CYP2C19; microsomes) | IC50 (CYP3A4; microsomes) | IC50 (CYP1A2; microsomes) | IC50 (CYP2D6; microsomes) | IC50 (CYP2C9; microsomes) | Compound | IC50 (CYP2D6; human liver microsomes, 10 min incubation, LC-MS/MS, read-out: CYP Inhibition Activity (IC50/nM) CYP2D6) | IC50 (CYP2C9)
14 | 370 nM | 2610 nM | 2660 nM | 3 nM | 380 nM | 810 nM | – | – | – | – | – | CC1(O)CCCN(c2ccc(Cl)cc2NC(=O)c2ccc(C3CCOCC3)o2)CC1 (racemic) [Example 41, N-(5-chloro-2-(4-hydroxy-4-methylazepan-1-yl)phenyl)-5-(tetrahydro-2H-pyran-4-yl)furan-2-carboxamide] | – | –
15 | 1400 nM | 1200 nM | 4000 nM | 1.7 nM | 2300 nM | 600 nM | – | – | – | – | – | CC1(O)CCN(c2ccc(C(F)F)cc2NC(=O)c2ccc(-c3ccncc3)o2)CC1 [Example 7, N-(5-(difluoromethyl)-2-(4-hydroxy-4-methyl-piperidin-1-yl)phenyl)-5-(pyridin-4-yl)furan-2-carboxamide] | – | –
16 | 690 nM | 1180 nM | 21800 nM | – | 260 nM | 610 nM | – | – | – | – | – | O=C(Nc1cc(C(F)(F)F)ccc1N1CCN(Cc2ccco2)CC1)c1ccc(-c2ccncc2)o1 [Reference Example 2, N-(2-(4-(furan-2-ylmethyl)piperazin-1-yl)-5-(trifluoromethyl)phenyl)-5-(pyridin-4-yl)furan-2-carboxamide, reference compound] | – | –
17 | 4780 nM | 970 nM | > 30000 nM | 1.6 nM | 9540 nM | 1440 nM | – | – | – | – | – | CN(C)C(=O)C1(C)CCN(c2ccc(C(F)(F)F)cc2NC(=O)c2ccc(C3CCOCC3)o2)CC1 [Example 77, N,N,4-trimethyl-1-(2-(5-(tetrahydro-2H-pyran-4-yl)furan-2-carboxamido)-4-(trifluoromethyl)-phenyl)piperidine-4-carboxamide] | – | –
18 | 1230 nM | 960 nM | 24100 nM | 17 nM | 240 nM | 610 nM | – | – | – | – | – | CC1(O)CCCN(c2ccc(C(F)(F)F)cc2NC(=O)c2ccc(-c3ccncc3)o2)CC1 (racemic) [Example 37, N-(2-(4-hydroxy-4-methylazepan-1-yl)-5-(trifluoromethyl)phenyl)-5-(pyridin-4-yl)furan-2-carboxamide] | – | –
19 | 290 nM | 830 nM | > 30000 nM | – | 550 nM | 170 nM | – | – | – | – | – | O=C(Nc1cc(C(F)(F)F)ccc1N1CCN(Cc2cocn2)CC1)c1ccc(-c2ccncc2)o1 [Reference Example 4, N-(2-(4-(oxazol-4-ylmethyl)piperazin-1-yl)-5-(trifluoromethyl)phenyl)-5-(pyridin-4-yl)furan-2-carboxamide, reference compound] | – | –
